# Patent US11130766B2, “Deuterated thienopiperidine derivatives, manufacturing method, and application thereof” (JIANGSU TASLY DIYI PHARMACEUTICAL CO., LTD., priority 2015, dated 2021)
# Where two headings read alike, the source gives them in different places. Marks after values point to notes of the source that are not given here.
# Columns and labels:
# [1] = tested on: Rat Arteriovenous Thrombus Loop Model; conditions: SD rat, 10 mg/kg oral gavage, 4 h after administration, 15 min circulation
# Source text: genus, strain: SD rat, • Provider: Slac • Weight: 250-350 g • Sex: male • Animal number: 30
# Apparatus and Materials • Swab, dry tampon, alcohol pad, anerdian tampon. • Surgical scissor, ophthalmic forceps, hemostatic forceps, microsurgical scissor, microsurgical forceps, artery clamps. • 3-0 surgical suture, thick PE tube (I.D.*O.D.=1.14 mm*1.63 mm, 8 cm long), think PE tube (I.D.*O.D.=0.72 mm*1.22 mm, 6 cm long). • Surgical board, binding rope, timer, precise electronic balance, weighing paper. • Syringe, normal saline.
# 7. Experimental Method • After arrival, the animals were let adapt to the environment for 1 week and fasted for 16 hours prior to the test. • The arteriovenous blood loop circulation was started 2 h after oral administration of the test compounds and 4 h after oral administration of clopidogrel. • The rats were anesthetized with pentobarbital sodium (50 mg/kg, ip) 15 min before the arteriovenous blood loop circulation was started. • The left external jugular vein and the right carotid artery were separated and inserted with thin PE tubes respectively. • Two PE tubes were connected with another thick PE tube with a length of 8 cm to form a circulation passage. There's a 6 cm surgical suture (3-0) in the thick PE tube. • 15 min after the circulation passage was opened, the blood flow was blocked, the filament was taken out and weighed after the blood was sucked out. The thrombus weight was obtained after subtraction of the weight of the filament itself.
# [2] = tested on: esterase; experiment: Esterase hydrolysis rates of TSD-8 and clopidogrel bisulfate, in vitro incubation in rat whole blood; format: in vitro ADME; design: sample test results (concentration) Num. 1 / sample test results (concentration) Num. 2 / sample test results (concentration) Num. 3 / sample test results (concentration) Mean: unit not given here; conditions: rat whole blood, 37° C., 30 μg/mL
# [3] = tested on: ADP induced platelet aggregation; experiment: ADP induced platelet aggregation, maximum aggregation rate after administration to rats; format: in vivo, Wistar male rats; conditions: ADP induced, rats, 3 mg/kg, blood drawn 2 hours after administration
# Experimental: Addition of small dose of ADP (concentration less than 0.9 μmol/L) into the platelet suspension could lead to rapid platelet aggregation, followed by quick disaggregation; if moderate dose of ADP (about 1.0 μmol/L) was added, then the second irreversible aggregation phase appeared not long after the end of the first aggregation phase and the disaggregation. The maximum aggregation rate of the irreversible aggregation phase was used to evaluate the effect of the test samples on the function of blood coagulation.
# Animals: Wistar male rats, weighing 230-250 g, were purchased from Vital River Laboratory Animal Technology Co., Ltd.
# Reagent: ADP, Sigma Corporation.
# Test samples: 16 test samples were provided by the Tasly Group; referred to China patent application 201310428052.4 for manufacturing method of TSC-1˜4 and TSC-6˜9.
# Dose of administration: the test samples were suspended with 0.25% CMC, administered 3 mg/kg weight, volume of administration: 2 mL.
# 2 Hours after administration, the rats were anesthetized with pentobarbital sodium, and blood was drawn from the abdominal aorta, anticoagulated with sodium citrate with a ratio of 1:9, and centrifuged to obtain the platelet-rich plasma and platelet-poor plasma, with the mixed ratio of the platelet-poor plasma to platelet-rich plasma=3:1.
# [4] = tested on: esterase; conditions: rat whole blood, 37° C., 30 μg/mL
# Experimental: The hydrolysis rates of formula TSD-6 and clopidogrel bisulfate in the rat whole blood were determined by employing the in vitro incubation method.
# 3 mL of the rat fresh whole blood was taken and placed in a glass test tube. 30 μg/mL of formula TSD-6 and clopidogrel bisulfate (prepared with saline) were added, with 3 parallel tests for each group. The test tubes were shocked at a constant temperature of 37° C., 100 μL of the mixture was taken out at fixed time points of 10 min, 20 min, 30 min, 40 min, 50 min, 60 min, 70 min, 80 min, 90 min, 100 min, 110 min, and 120 min, into which 900 μL of methanol was added to stop the reaction immediately, then 100 μL methanol/water (1:1, v/v) and 100 μL internal standard (diazepam, 100 ng/mL) were added sequentially. The mixture was centrifuged at 13000 rpm at low temperature for 10 min, the supernatant was transferred into another EP tube, and 20 μL of the supernatant was taken for sample injection.
# [5] = tested on: Rat Tail Bleeding Model; conditions: SD rat, 10 mg/kg oral gavage, 4 h after administration
# Experimental: genus, strain SD rat, • Provider: Slac • Weight: 250-350 g • Sex: male • Animal number: 30
# Experimental Method: • The animals were allowed adapt to the environment after arrival for 1 week and fasted for 16 hours prior to the experiment. • The tail bleeding time started to be recorded 2 h after oral administration of the test compounds and 4 h after oral administration of clopidogrel. • The rats were anesthetized with pentobarbital sodium (50 mg/kg, ip) 10 min prior to the recording of the tail bleeding time, after the rat was completely anesthetized and reaching the detection time, the tail was cut at 1.3 mm from the rat tail-tip with a scissor and perpendicularly immerged into a saline at 37° C. Timing recording was not started until the blood flow appeared. • The timing recording was stopped when the bleeding time interval was longer than 20 seconds. The maximum observation time for the blood flow was set for 40 minutes. If it was longer than 40 minutes, the timing recording was stopped and the time was recorded as 40 minutes.
compound,measurement,setting,value
"COC(=O)[C@H](c1ccccc1Cl)N1CCc2sccc2C1 [clopidogrel, Clopidogrel, reference compound]",Thrombus (mg),[1],20.1** mg
same,time at which the concentration in the whole blood was lower than the quantitative lower limit,[2],around 50 min
same,sample test results (concentration) Mean,[2]; 10 min,199.50
same,sample test results (concentration) Num. 1,[2]; 10 min,232
same,sample test results (concentration) Num. 3,[2]; 10 min,167
same,sample test results (concentration) Mean,[2]; 20 min,90.53
same,sample test results (concentration) Num. 1,[2]; 20 min,64.1
same,sample test results (concentration) Num. 2,[2]; 20 min,131
same,sample test results (concentration) Num. 3,[2]; 20 min,76.5
same,sample test results (concentration) Mean,[2]; 30 min,34.07
same,sample test results (concentration) Num. 1,[2]; 30 min,20.6
same,sample test results (concentration) Num. 2,[2]; 30 min,53
same,sample test results (concentration) Num. 3,[2]; 30 min,28.6
same,sample test results (concentration) Mean,[2]; 40 min,11.82
same,sample test results (concentration) Num. 1,[2]; 40 min,6.46
same,sample test results (concentration) Num. 2,[2]; 40 min,14.3
same,sample test results (concentration) Num. 3,[2]; 40 min,14.7
same,sample test results (concentration) Mean,[2]; 50 min,0.62
same,sample test results (concentration) Num. 1,[2]; 50 min,0.479
same,sample test results (concentration) Num. 2,[2]; 50 min,1.01
same,sample test results (concentration) Num. 3,[2]; 50 min,0.359
same,sample test results (concentration) Mean,[2]; 60 min,0.53
same,sample test results (concentration) Num. 1,[2]; 60 min,0.347
same,sample test results (concentration) Num. 2,[2]; 60 min,1.24
same,sample test results (concentration) Num. 3,[2]; 60 min,0
same,sample test results (concentration) Mean,[2]; 90 min,0.00
same,sample test results (concentration) Num. 1,[2]; 90 min,0
same,sample test results (concentration) Num. 2,[2]; 90 min,0
same,sample test results (concentration) Num. 3,[2]; 90 min,0
same,sample test results (concentration) Mean,[2]; 100 min,0.00
same,sample test results (concentration) Num. 1,[2]; 100 min,0
same,sample test results (concentration) Num. 2,[2]; 100 min,0
same,sample test results (concentration) Num. 3,[2]; 100 min,0
same,sample test results (concentration) Mean,[2]; 110 min,0.00
same,sample test results (concentration) Num. 1,[2]; 110 min,0
same,sample test results (concentration) Num. 2,[2]; 110 min,0
same,sample test results (concentration) Num. 3,[2]; 110 min,0
same,sample test results (concentration) Mean,[2]; 120 min,0.00
same,sample test results (concentration) Num. 1,[2]; 120 min,0
same,sample test results (concentration) Num. 2,[2]; 120 min,0
same,sample test results (concentration) Num. 3,[2]; 120 min,0
same,Maximum Platelet Aggregation Rate,[3],46.77 ± 8.28
same,time at which the concentration in the whole blood was lower than the quantitative lower limit,[4],around 50 min
same,sample test results (concentration) Mean,[4]; 10 min,211.0
same,sample test results (concentration) Num. 1,[4]; 10 min,238
same,sample test results (concentration) Num. 2,[4]; 10 min,221
same,sample test results (concentration) Num. 3,[4]; 10 min,174
same,sample test results (concentration) Mean,[4]; 20 min,89.6
same,sample test results (concentration) Num. 1,[4]; 20 min,66.2
same,sample test results (concentration) Num. 2,[4]; 20 min,128
same,sample test results (concentration) Num. 3,[4]; 20 min,74.7
same,sample test results (concentration) Mean,[4]; 30 min,35.1
same,sample test results (concentration) Num. 1,[4]; 30 min,24.1
same,sample test results (concentration) Num. 2,[4]; 30 min,57.2
same,sample test results (concentration) Num. 3,[4]; 30 min,24.1
same,sample test results (concentration) Mean,[4]; 40 min,11.2
same,sample test results (concentration) Num. 1,[4]; 40 min,6.27
same,sample test results (concentration) Num. 2,[4]; 40 min,15.1
same,sample test results (concentration) Num. 3,[4]; 40 min,19.3
same,sample test results (concentration) Mean,[4]; 50 min,0.70
same,sample test results (concentration) Num. 1,[4]; 50 min,0.449
same,sample test results (concentration) Num. 2,[4]; 50 min,1.12
same,sample test results (concentration) Num. 3,[4]; 50 min,0.518
same,sample test results (concentration) Mean,[4]; 60 min,0.62
same,sample test results (concentration) Num. 1,[4]; 60 min,0.417
same,sample test results (concentration) Num. 2,[4]; 60 min,1.45
same,sample test results (concentration) Num. 3,[4]; 60 min,0
same,sample test results (concentration) Mean,[4]; 90 min,0
same,sample test results (concentration) Num. 1,[4]; 90 min,0
same,sample test results (concentration) Num. 2,[4]; 90 min,0
same,sample test results (concentration) Num. 3,[4]; 90 min,0
same,sample test results (concentration) Mean,[4]; 100 min,0
same,sample test results (concentration) Num. 1,[4]; 100 min,0
same,sample test results (concentration) Num. 2,[4]; 100 min,0
same,sample test results (concentration) Num. 3,[4]; 100 min,0
same,sample test results (concentration) Mean,[4]; 110 min,0
same,sample test results (concentration) Num. 1,[4]; 110 min,0
same,sample test results (concentration) Num. 2,[4]; 110 min,0
same,sample test results (concentration) Num. 3,[4]; 110 min,0
same,sample test results (concentration) Mean,[4]; 120 min,0
same,sample test results (concentration) Num. 1,[4]; 120 min,0
same,sample test results (concentration) Num. 2,[4]; 120 min,0
same,sample test results (concentration) Num. 3,[4]; 120 min,0
same,Tail Bleeding Time (s),[5],1896*** s
